From patent publication US9212182B2, “Bicyclic sulfonamide compounds as sodium channel inhibitors” (AMGEN INC., priority 2013, dated 2015)
Where two headings read alike, the source gives them in different places.

Biological target: Nav 1.7 (Homo sapiens (Human), UniProt Q15858)
Test: in-vitro Nav 1.7 PX (IC50)
Assay type: cell-based

Chain of Nav 1.7 (Q15858 whole entry): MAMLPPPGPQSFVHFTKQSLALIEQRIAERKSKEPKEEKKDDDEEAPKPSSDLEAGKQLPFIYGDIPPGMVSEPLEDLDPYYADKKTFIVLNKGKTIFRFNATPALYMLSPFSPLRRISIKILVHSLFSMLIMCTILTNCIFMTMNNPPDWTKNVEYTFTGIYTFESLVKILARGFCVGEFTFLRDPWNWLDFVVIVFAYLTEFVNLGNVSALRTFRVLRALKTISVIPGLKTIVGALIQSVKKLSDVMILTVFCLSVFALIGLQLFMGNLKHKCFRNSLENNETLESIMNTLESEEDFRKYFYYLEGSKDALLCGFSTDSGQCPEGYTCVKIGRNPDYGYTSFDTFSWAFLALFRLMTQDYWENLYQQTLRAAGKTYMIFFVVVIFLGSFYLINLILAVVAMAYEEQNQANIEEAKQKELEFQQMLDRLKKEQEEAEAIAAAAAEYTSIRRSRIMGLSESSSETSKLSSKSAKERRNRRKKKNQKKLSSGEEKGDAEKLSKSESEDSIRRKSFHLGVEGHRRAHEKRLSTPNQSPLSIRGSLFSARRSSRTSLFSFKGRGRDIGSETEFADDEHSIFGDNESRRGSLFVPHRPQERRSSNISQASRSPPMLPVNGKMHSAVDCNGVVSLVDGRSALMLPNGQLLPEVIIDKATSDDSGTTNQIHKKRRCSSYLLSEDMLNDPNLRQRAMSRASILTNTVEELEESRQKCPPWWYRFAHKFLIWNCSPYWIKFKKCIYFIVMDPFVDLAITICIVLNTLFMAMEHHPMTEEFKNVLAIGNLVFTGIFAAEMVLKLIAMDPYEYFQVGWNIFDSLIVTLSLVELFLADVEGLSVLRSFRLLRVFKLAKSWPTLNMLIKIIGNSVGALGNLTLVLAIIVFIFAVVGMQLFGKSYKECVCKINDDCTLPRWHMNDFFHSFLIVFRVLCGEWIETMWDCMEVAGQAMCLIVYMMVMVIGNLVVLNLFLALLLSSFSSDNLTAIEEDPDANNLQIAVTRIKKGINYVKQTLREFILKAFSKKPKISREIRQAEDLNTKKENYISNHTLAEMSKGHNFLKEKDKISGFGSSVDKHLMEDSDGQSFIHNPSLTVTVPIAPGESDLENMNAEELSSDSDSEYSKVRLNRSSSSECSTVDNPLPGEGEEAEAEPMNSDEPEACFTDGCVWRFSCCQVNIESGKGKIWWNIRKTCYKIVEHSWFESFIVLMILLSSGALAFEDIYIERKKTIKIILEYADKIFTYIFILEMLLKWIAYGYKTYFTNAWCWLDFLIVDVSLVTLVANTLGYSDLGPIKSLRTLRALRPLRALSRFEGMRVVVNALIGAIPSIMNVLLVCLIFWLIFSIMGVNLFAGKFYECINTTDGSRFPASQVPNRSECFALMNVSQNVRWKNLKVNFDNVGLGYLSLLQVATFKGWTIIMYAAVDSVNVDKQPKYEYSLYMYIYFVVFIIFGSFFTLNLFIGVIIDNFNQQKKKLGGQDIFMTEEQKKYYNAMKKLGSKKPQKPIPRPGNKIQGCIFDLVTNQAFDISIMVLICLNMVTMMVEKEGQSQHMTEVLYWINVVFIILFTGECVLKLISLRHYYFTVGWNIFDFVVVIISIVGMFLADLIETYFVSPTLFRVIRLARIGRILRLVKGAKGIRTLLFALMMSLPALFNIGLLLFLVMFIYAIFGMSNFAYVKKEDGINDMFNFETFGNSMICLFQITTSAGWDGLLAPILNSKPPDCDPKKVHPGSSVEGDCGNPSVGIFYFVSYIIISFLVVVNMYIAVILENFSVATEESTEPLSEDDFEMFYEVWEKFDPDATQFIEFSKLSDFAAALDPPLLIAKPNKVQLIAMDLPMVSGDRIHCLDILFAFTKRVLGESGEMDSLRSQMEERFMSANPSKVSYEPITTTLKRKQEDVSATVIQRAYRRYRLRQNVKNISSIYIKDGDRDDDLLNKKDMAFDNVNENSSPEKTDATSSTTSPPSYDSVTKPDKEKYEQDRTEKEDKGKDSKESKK

SMILES	IC50 (in-vitro Nav 1.7 PX data)	IC50
COc1cc(C[C@@H]2CCOC2)c(F)cc1-n1c(=O)ccc2cc(S(=O)(=O)Nc3ccon3)ccc21 [Example 1123, 1-(5-fluoro-2-methoxy-4-((3R)-tetrahydro-3-furanylmethyl)phenyl)-N-3-isoxazolyl-2-oxo-1,2-dihydro-6-quinolinesulfonamide, 1-(5-fluoro-2-methoxy-4-((3S)-tetrahydro-3-furanylmethyl)phenyl)-N-3-isoxazolyl-2-oxo-1,2-dihydro-6-quinolinesulfonamide]	1600 nM	
COc1cc(-c2ccc(C)c(F)c2)c(F)cc1-n1c(=O)ccc2cc(S(=O)(=O)Nc3ccnc(C)n3)ccc21 [Example 1124, 1-(2,3′-difluoro-5-methoxy-4′-methyl-4-biphenylyl)-N-(2-methyl-4-pyrimidinyl)-2-oxo-1,2-dihydro-6-quinolinesulfonamide]	106 nM	
COc1cc(-c2ccc(C)c(F)c2)c(F)cc1-n1c(=O)ccc2cc(S(=O)(=O)Nc3ncco3)ccc21 [Example 1125, 1-(2,3′-difluoro-5-methoxy-4′-methyl-4-biphenylyl)-N-1,3-oxazol-2-yl-2-oxo-1,2-dihydro-6-quinolinesulfonamide]	81 nM	
COc1cc(-c2ccc(C)c(F)c2)c(F)cc1-n1c(=O)ccc2cc(S(=O)(=O)Nc3ncccn3)ccc21 [Example 1126, 1-(2,3′-difluoro-5-methoxy-4′-methyl-4-biphenylyl)-2-oxo-N-2-pyrimidinyl-1,2-dihydro-6-quinolinesulfonamide]	57 nM	
COc1cc(-c2ccc(C)c(F)c2)c(F)cc1-n1c(=O)ccc2cc(S(=O)(=O)Nc3ncc(F)cn3)ccc21 [Example 1127, 1-(2,3′-difluoro-5-methoxy-4′-methyl-4-biphenylyl)-N-(5-fluoro-2-pyrimidinyl)-2-oxo-1,2-dihydro-6-quinolinesulfonamide]	34 nM	
COc1cc(-c2ccc(C)c(F)c2)c(F)cc1-n1c(=O)ccc2cc(S(=O)(=O)Nc3cccnn3)ccc21 [Example 1128, 1-(2,3′-difluoro-5-methoxy-4′-methyl-4-biphenylyl)-2-oxo-N-3-pyridazinyl-1,2-dihydro-6-quinolinesulfonamide]	36 nM	
COc1cc(-c2ccc(C)c(F)c2)c(F)cc1-n1c(=O)ccc2cc(S(=O)(=O)Nc3cc(C)ncn3)ccc21 [Example 1129, 1-(2,3′-difluoro-5-methoxy-4′-methyl-4-biphenylyl)-N-(6-methyl-4-pyrimidinyl)-2-oxo-1,2-dihydro-6-quinolinesulfonamide]	80 nM	
COc1cc(C#CC2CC2)c(F)cc1-n1c(=O)ccc2cc(S(=O)(=O)Nc3ccon3)ccc21 [Example 1130, 1-(4-(cyclopropylethynyl)-5-fluoro-2-methoxyphenyl)-N-3-isoxazolyl-2-oxo-1,2-dihydro-6-quinolinesulfonamide]	209 nM	
COc1cc(C[C@H]2CCCCO2)c(F)cc1-n1c(=O)ccc2cc(S(=O)(=O)Nc3ccon3)ccc21 [Example 1133, 1-(5-fluoro-2-methoxy-4-((2R)-tetrahydro-2H-pyran-2-ylmethyl)phenyl)-N-3-isoxazolyl-2-oxo-1,2-dihydro-6-quinolinesulfonamide, 1-(5-fluoro-2-methoxy-4-((2S)-tetrahydro-2H-pyran-2-ylmethyl)phenyl)-N-3-isoxazolyl-2-oxo-1,2-dihydro-6-quinolinesulfonamide]	2260 nM	
COc1cc(C#CC2CCCC2)c(F)cc1-n1c(=O)ccc2cc(S(=O)(=O)Nc3ncccn3)ccc21 [Example 1134, 1-(4-(cyclopentylethynyl)-5-fluoro-2-methoxyphenyl)-2-oxo-N-2-pyrimidinyl-1,2-dihydro-6-quinolinesulfonamide]	26 nM	
COc1cc(C#CC2CCCC2)c(F)cc1-n1c(=O)ccc2cc(S(=O)(=O)Nc3ncc(F)cn3)ccc21 [Example 1135, 1-(4-(cyclopentylethynyl)-5-fluoro-2-methoxyphenyl)-N-(5-fluoro-2-pyrimidinyl)-2-oxo-1,2-dihydro-6-quinolinesulfonamide]	114 nM	
COc1cc(C#CC2CCCC2)c(F)cc1-n1c(=O)ccc2cc(S(=O)(=O)Nc3ncco3)ccc21 [Example 1136, 1-(4-(cyclopentylethynyl)-5-fluoro-2-methoxyphenyl)-N-1,3-oxazol-2-yl-2-oxo-1,2-dihydro-6-quinolinesulfonamide]	48 nM	
COc1cc(-c2cccc(C(F)(F)F)c2)ccc1-n1c(=O)ccc2cc(S(=O)(=O)Nc3ccc(C)nn3)ccc21 [Example 1138, 1-(3-methoxy-3′-(trifluoromethyl)-4-biphenylyl)-N-(6-methyl-3-pyridazinyl)-2-oxo-1,2-dihydro-6-quinolinesulfonamide]	146 nM	
COc1cc(C#CC(C)(C)O)c(F)cc1-n1c(=O)ccc2cc(S(=O)(=O)Nc3ccon3)ccc21 [Example 1139, 1-(5-fluoro-4-(3-hydroxy-3-methyl-1-butyn-1-yl)-2-methoxyphenyl)-N-3-isoxazolyl-2-oxo-1,2-dihydro-6-quinolinesulfonamide]	7380 nM	
O=c1ccc2cc(S(=O)(=O)Nc3ccon3)ccc2n1[C@@H]1CC[C@@H](c2cccc(F)c2)C1 [Example 1143, 1-((1R,3R)-3-(3-fluorophenyl)cyclopentyl)-N-3-isoxazolyl-2-oxo-1,2-dihydro-6-quinolinesulfonamide, 1-((1R,3S)-3-(3-fluorophenyl)cyclopentyl)-N-3-isoxazolyl-2-oxo-1,2-dihydro-6-quinolinesulfonamide, 1-((1S,3R)-3-(3-fluorophenyl)cyclopentyl)-N-3-isoxazolyl-2-oxo-1,2-dihydro-6-quinolinesulfonamide, 1-((1S,3S)-3-(3-fluorophenyl)cyclopentyl)-N-3-isoxazolyl-2-oxo-1,2-dihydro-6-quinolinesulfonamide]		8910 nM
COc1ccc(CC#N)cc1-n1c(=O)ccc2cc(S(=O)(=O)Nc3ccon3)ccc21 [Example 1146, 1-(5-(cyanomethyl)-2-methoxyphenyl)-N-3-isoxazolyl-2-oxo-1,2-dihydro-6-quinolinesulfonamide]		3590 nM
COc1ccc(C#CC2CCCC2)cc1-n1c(=O)ccc2cc(S(=O)(=O)Nc3ccon3)ccc21 [Example 1147, 1-(5-(cyclopentylethynyl)-2-methoxyphenyl)-N-3-isoxazolyl-2-oxo-1,2-dihydro-6-quinolinesulfonamide]		121 nM
COc1cc(-c2ccc(F)c(F)c2)c(F)cc1-n1c(=O)cnc2cc(S(=O)(=O)Nc3cccnn3)ccc21 [Example 1180, 2-oxo-N-3-pyridazinyl-1-(2,3′,4′-trifluoro-5-methoxy-4-biphenylyl)-1,2-dihydro-6-quinoxalinesulfonamide]		265 nM

The next lines start with the values.

IC50 (in-vitro Nav 1.7 PX data)	IC50	SMILES
155 nM		COc1cc(-c2cccc(C)c2)ccc1-n1c(=O)ccc2cc(S(=O)(=O)Nc3cc(C)ncn3)ccc21 [Example 1131, 1-(3-methoxy-3′-methyl-4-biphenylyl)-N-(6-methyl-4-pyrimidinyl)-2-oxo-1,2-dihydro-6-quinolinesulfonamide]
192 nM		COc1cc(-c2cccc(C)c2)ccc1-n1c(=O)ccc2cc(S(=O)(=O)Nc3ccnc(C)n3)ccc21 [Example 1132, 1-(3-methoxy-3′-methyl-4-biphenylyl)-N-(2-methyl-4-pyrimidinyl)-2-oxo-1,2-dihydro-6-quinolinesulfonamide]
36 nM		COc1cc(-c2cccc(C(F)(F)F)c2)ccc1-n1c(=O)ccc2cc(S(=O)(=O)Nc3cc(C)cnn3)ccc21 [Example 1137, 1-(3-methoxy-3′-(trifluoromethyl)-4-biphenylyl)-N-(5-methyl-3-pyridazinyl)-2-oxo-1,2-dihydro-6-quinolinesulfonamide]
	106 nM	COc1cc(-c2ccc(F)cc2)c(F)cc1-n1c(=O)cnc2cc(S(=O)(=O)Nc3ccon3)ccc21 [Example 1141, 1-(2,4′-difluoro-5-methoxy-4-biphenylyl)-N-3-isoxazolyl-2-oxo-1,2-dihydro-6-quinoxalinesulfonamide]
	79 nM	COc1cc(C#CC2CCCC2)c(F)cc1-n1c(=O)cnc2cc(S(=O)(=O)Nc3ccon3)ccc21 [Example 1142, 1-(4-(cyclopentylethynyl)-5-fluoro-2-methoxyphenyl)-N-3-isoxazolyl-2-oxo-1,2-dihydro-6-quinoxalinesulfonamide]
	10100 nM	COc1ccccc1-n1c(=O)ccc2cc(S(=O)(=O)Nc3ccon3)ccc21 [Example 1154, N-(isoxazol-3-yl)-1-(2-methoxyphenyl)-2-oxo-1,2-dihydroquinoline-6-sulfonamide]
	805 nM	COc1cnc(-c2cc(Cl)ccc2F)cc1-n1c(=O)ccc2cc(S(=O)(=O)Nc3ccon3)ccc21 [Example 1169, 1-(2-(5-chloro-2-fluorophenyl)-5-methoxy-4-pyridinyl)-N-3-isoxazolyl-2-oxo-1,2-dihydro-6-quinolinesulfonamide]
	62 nM	COc1cc(-c2ccc(F)c(F)c2)c(F)cc1-n1c(=O)cnc2cc(S(=O)(=O)Nc3ccon3)ccc21 [Example 1179, N-3-isoxazolyl-2-oxo-1-(2,3′,4′-trifluoro-5-methoxy-4-biphenylyl)-1,2-dihydro-6-quinoxalinesulfonamide]
	93 nM	COc1cc(-c2cccc(OC(F)F)c2)c(F)cc1-n1c(=O)cnc2cc(S(=O)(=O)Nc3ccon3)ccc21 [Example 1193, 1-(3′-(difluoromethoxy)-2-fluoro-5-methoxy-4-biphenylyl)-N-3-isoxazolyl-2-oxo-1,2-dihydro-6-quinoxalinesulfonamide]
	56 nM	COc1cc(-c2ccc(F)c(C)c2)c(F)cc1-n1c(=O)cnc2cc(S(=O)(=O)Nc3ccon3)ccc21 [Example 1194, 1-(2,4′-difluoro-5-methoxy-3′-methyl-4-biphenylyl)-N-3-isoxazolyl-2-oxo-1,2-dihydro-6-quinoxalinesulfonamide]
	54 nM	COc1cc(-c2ccc(Cl)c(C)c2)ccc1-n1c(=O)cnc2cc(S(=O)(=O)Nc3ccon3)ccc21 [Example 1195, 1-(4′-chloro-3-methoxy-3′-methyl-4-biphenylyl)-N-3-isoxazolyl-2-oxo-1,2-dihydro-6-quinoxalinesulfonamide]
	146 nM	COc1cc(-c2ccc(-n3c(=O)cnc4cc(S(=O)(=O)Nc5ccon5)ccc43)c(OC)c2)ccc1C [Example 1197, 1-(3,3′-dimethoxy-4′-methyl-4-biphenylyl)-N-3-isoxazolyl-2-oxo-1,2-dihydro-6-quinoxalinesulfonamide]
